According to the supplement of paper PMC10307832:

Columns and labels:
Experiment in all cases: relative viability (nuclei count vs DMSO), 5 days (fraction); higher = more cells survive
IMD-0354 + Bortezomib = compound: O=C(Nc1cc(C(F)(F)F)cc(C(F)(F)F)c1)c1cc(Cl)ccc1O [IMD-0354] + CC(C)C[C@H](NC(=O)[C@H](Cc1ccccc1)NC(=O)c1cnccn1)B(O)O [Bortezomib] (partner 0.002 µM)
In short: (§1)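 After 5 days of treatment, lung cancer cells in 1536-well plates were fixed and stained in a single step (final 0.05% Triton X-100, 1% formaldehyde, 1 ug/ml Hoechst) and their nuclei counted on 4× images. Treatment had been applied by pin tool the day after seeding as one drug alone or as a fixed anchor-drug dose with five library-drug doses (not always all listed) in √10 steps. Relative viability is the nuclei count of treated wells divided by that of vehicle wells, and values are medians of duplicate plates.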

CX-5461 + Palbociclib = compound: Cc1cnc(CNC(=O)c2c(=O)c3ccc(N4CCCN(C)CC4)nc3n3c2sc2ccccc23)cn1 [CX-5461] + CC(=O)c1c(C)c2cnc(Nc3ccc(N4CCNCC4)cn3)nc2n(C2CCCC2)c1=O [Palbociclib] (partner 0.5 µM)
In short: as §1

IMD-0354 + Vorinostat = compound: O=C(Nc1cc(C(F)(F)F)cc(C(F)(F)F)c1)c1cc(Cl)ccc1O [IMD-0354] + O=C(CCCCCCC(=O)Nc1ccccc1)NO [Vorinostat] (partner 1 µM)
In short: as §1

CX-5461 + Crizotinib = compound: Cc1cnc(CNC(=O)c2c(=O)c3ccc(N4CCCN(C)CC4)nc3n3c2sc2ccccc23)cn1 [CX-5461] + C[C@@H](Oc1cc(-c2cnn(C3CCNCC3)c2)cnc1N)c1c(Cl)ccc(F)c1Cl [Crizotinib] (partner 1 µM)
In short: as §1

Row | Cell Line | relative viability (IMD-0354 + Bortezomib; first compound 0.04 µM) | relative viability (IMD-0354 + Bortezomib; first compound 0.1265 µM) | relative viability (IMD-0354 + Bortezomib; first compound 0.4 µM) | relative viability (IMD-0354 + Bortezomib; first compound 1.265 µM) | relative viability (IMD-0354 + Bortezomib; first compound 4 µM) | relative viability (CX-5461 + Palbociclib; first compound 0.01 µM) | relative viability (CX-5461 + Palbociclib; first compound 0.03162 µM) | relative viability (CX-5461 + Palbociclib; first compound 0.1 µM) | relative viability (CX-5461 + Palbociclib; first compound 0.3162 µM) | relative viability (CX-5461 + Palbociclib; first compound 1 µM) | relative viability (IMD-0354 + Vorinostat; first compound 0.04 µM) | relative viability (IMD-0354 + Vorinostat; first compound 0.1265 µM) | relative viability (IMD-0354 + Vorinostat; first compound 0.4 µM) | relative viability (IMD-0354 + Vorinostat; first compound 1.265 µM) | relative viability (IMD-0354 + Vorinostat; first compound 4 µM) | relative viability (CX-5461 + Crizotinib; first compound 0.01 µM) | relative viability (CX-5461 + Crizotinib; first compound 0.03162 µM) | relative viability (CX-5461 + Crizotinib; first compound 0.1 µM) | relative viability (CX-5461 + Crizotinib; first compound 0.3162 µM) | relative viability (CX-5461 + Crizotinib; first compound 1 µM)
1 | HCC-78 | 0.419 | 0.438 | 0.443 | 0.561 | 0.382 | 0.503 | 0.453 | 0.444 | 0.508 | 0.429 | 0.406 | 0.378 | 0.405 | 0.407 | 0.31 | 0.357 | 0.36 | 0.358 | 0.243 | 0.328
2 | HCC-366 | 1.2 | 0.885 | 0.281 | 0.099 | 0.0336 | 0.451 | 0.546 | 0.355 | 0.308 | 0.287 | 0.314 | 0.439 | 0.206 | 0.165 | 0.0652 | 0.693 | 0.82 | 0.573 | 0.252 | 0.48
3 | HCC-827 | 1.03 | 1.07 | 0.825 | 0.462 | 0.347 | 0.452 | 0.529 | 0.538 | 0.437 | 0.582 | 0.86 | 0.841 | 0.706 | 0.264 | 0.29 | 0.876 | 0.877 | 0.905 | 0.866 | 0.846
4 | HOP-62 | 0.954 | 0.836 | 0.661 | 0.227 | 0.0871 | 0.415 | 0.446 | 0.461 | 0.413 | 0.415 | 0.573 | 0.577 | 0.417 | 0.193 | 0.109 | 0.996 | 0.901 | 0.858 | 0.624 | 1.09
5 | IA-LM | 0.866 | 0.977 | 0.76 | 0.102 | 0.121 |  |  |  |  |  | 0.89 | 0.737 | 0.397 | 1.11 | 0.681 | 0.968 | 0.813 | 0.821 | 0.836 | 0.33
6 | LC-2-ad | 1.02 | 0.991 | 0.385 | 0.129 | 0.119 | 0.474 | 0.552 | 0.42 | 0.469 | 0.47 | 0.732 | 0.691 | 0.394 | 0.193 | 0.169 | 0.491 | 0.522 | 0.363 | 0.286 | 0.454
7 | LCLC-97TM1 | 0.928 | 0.501 | 0.706 | 0.0804 | 0.242 | 0.211 | 0.254 | 0.198 | 0.208 | 0.227 | 0.879 | 0.782 | 0.273 | 0.0926 | 0.123 | 0.436 | 0.422 | 0.286 |  | 0.436
8 | LK-2 |  |  |  |  |  | 0.54 | 0.972 | 0.724 |  | 0.564 | 0.291 | 0.284 |  | 0.158 | 0.216 |  | 0.188 | 0.214 |  | 0.239
9 | NCI-H358 |  |  |  |  |  | 0.135 | 0.124 | 0.135 | 0.0878 | 0.084 | 0.768 | 0.753 | 0.323 | 0.135 | 0.175 | 0.524 | 0.57 | 0.365 | 0.26 | 0.174
